Reference: paper PMC5908784, “Extracellular loops 2 and 3 of the calcitonin receptor selectively modify agonist binding and efficacy” (Biochemical Pharmacology, 2018)
Changes are numbered by the printed parent chain. Where a SMILES comes first, the peptide text is derived from it. Bridges are numbered along the chain shown (N, C = ends).

Experiments:
Experiment in all cases: ERK1/2 phosphorylation
Type in all cases: cell-based
[1] = biological target: T1, hCTR C289A (Homo sapiens, UniProt P30988, C289A); conditions: CV1-FlpIn cells, mean ± S.E.M.; for Emax: pERK maximal response
T1 construct: c-Myc (N); expressed in transfected cells
T1 sequence (P30988 25-474 C289A): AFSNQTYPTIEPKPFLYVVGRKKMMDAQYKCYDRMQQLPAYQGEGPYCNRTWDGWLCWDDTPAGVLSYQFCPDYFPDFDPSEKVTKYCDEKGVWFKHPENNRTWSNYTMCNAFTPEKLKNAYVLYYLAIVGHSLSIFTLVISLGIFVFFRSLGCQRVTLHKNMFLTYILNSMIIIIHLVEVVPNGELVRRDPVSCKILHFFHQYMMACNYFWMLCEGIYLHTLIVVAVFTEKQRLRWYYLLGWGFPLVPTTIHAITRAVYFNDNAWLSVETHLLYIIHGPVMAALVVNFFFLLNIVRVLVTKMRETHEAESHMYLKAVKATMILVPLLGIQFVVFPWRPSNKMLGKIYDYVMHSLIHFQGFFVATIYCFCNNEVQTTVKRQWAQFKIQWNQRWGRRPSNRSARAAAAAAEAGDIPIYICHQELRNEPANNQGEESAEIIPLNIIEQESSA
Outline: (§1)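 EC50 and Emax values derive from three-parameter logistic curves and combine functional affinity, efficacy and stimulus-response coupling. Responses are normalized to 10% FBS (6 min).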

[2] = biological target: T2, hCTR Y299A (Homo sapiens, UniProt P30988, Y299A); conditions: CV1-FlpIn cells, mean ± S.E.M.; for Emax: pERK maximal response
T2 construct: c-Myc (N); expressed in transfected cells
T2 sequence (P30988 25-474 Y299A): T1 sequence (P30988 25-474 C289A) with A265C, Y275A
Outline: as §1

[3] = biological target: T3, hCTR V293A (Homo sapiens, UniProt P30988, V293A); conditions: CV1-FlpIn cells, mean ± S.E.M.; for Emax: pERK maximal response; for EC50: pERK, three-parameter logistic fit
T3 construct: c-Myc (N); expressed in transfected cells
T3 sequence (P30988 25-474 V293A): T1 sequence (P30988 25-474 C289A) with A265C, V269A
Outline: as §1

[4] = biological target: T4, hCTR L368A (Homo sapiens, UniProt P30988, L368A); conditions: CV1-FlpIn cells, mean ± S.E.M.; for Emax: pERK maximal response; for EC50: pERK, three-parameter logistic fit
T4 construct: c-Myc (N); expressed in transfected cells
T4 sequence (P30988 25-474 L368A): T1 sequence (P30988 25-474 C289A) with A265C, L344A
Outline: as §1

[5] = biological target: T5, hCTR WT (Homo sapiens, UniProt P30988); conditions: CV1-FlpIn cells, mean ± S.E.M.; for Emax: pERK maximal response; for EC50: pERK, three-parameter logistic fit
T5 construct: expressed in transfected cells
T5 sequence (P30988 25-474): T1 sequence (P30988 25-474 C289A) with A265C
Outline: as §1

[6] = pERK, three-parameter logistic fit

SMILES | Emax [1] | Emax [2] | Emax [3] | Emax [4] | Emax [5] | EC50 [3] | EC50 [4] | EC50 [5] | EC50 [1, 6] | EC50 [2, 6]
CC(C)C[C@H](NC(=O)[C@H](CCCCN)NC(=O)CNC(=O)[C@H](CC(C)C)NC(=O)[C@@H](NC(=O)[C@@H]1CSSC[C@H](N)C(=O)N[C@@H](CO)C(=O)N[C@@H](CC(N)=O)C(=O)N[C@@H](CC(C)C)C(=O)N[C@@H](CO)C(=O)N[C@@H]([C@@H](C)O)C(=O)N1)C(C)C)C(=O)N[C@@H](CO)C(=O)N[C@@H](CCC(N)=O)C(=O)N[C@@H](CCC(=O)O)C(=O)N[C@@H](CC(C)C)C(=O)N[C@@H](Cc1c[nH]cn1)C(=O)N[C@@H](CCCCN)C(=O)N[C@@H](CC(C)C)C(=O)N[C@@H](CCC(N)=O)C(=O)N[C@H](C(=O)N[C@@H](Cc1ccc(O)cc1)C(=O)N1CCC[C@H]1C(=O)N[C@@H](CCCNC(=N)N)C(=O)N[C@H](C(=O)N[C@@H](CC(N)=O)C(=O)N[C@H](C(=O)NCC(=O)N[C@@H](CO)C(=O)NCC(=O)N[C@H](C(=O)N1CCC[C@H]1C(N)=O)[C@@H](C)O)[C@@H](C)O)[C@@H](C)O)[C@@H](C)O [sCT] | 64 ± 11% | 58 ± 4% | 135 ± 12% | 140 ± 6% | 100 ± 3% | – | – | – | – | –
CC(C)C[C@H](NC(=O)[C@H](CC(N)=O)NC(=O)[C@H](CC(N)=O)NC(=O)[C@H](CO)NC(=O)[C@H](CO)NC(=O)[C@H](CCCNC(=N)N)NC(=O)[C@@H](NC(=O)[C@H](CC(C)C)NC(=O)[C@H](Cc1ccccc1)NC(=O)[C@H](CC(N)=O)NC(=O)[C@H](C)NC(=O)[C@H](CC(C)C)NC(=O)[C@H](CCCNC(=N)N)NC(=O)[C@H](CCC(N)=O)NC(=O)[C@@H](NC(=O)[C@H](C)NC(=O)[C@@H]1CSSC[C@H](NC(=O)[C@@H](N)CCCCN)C(=O)N[C@@H](CC(N)=O)C(=O)N[C@@H]([C@@H](C)O)C(=O)N[C@@H](C)C(=O)N[C@@H]([C@@H](C)O)C(=O)N1)[C@@H](C)O)C(C)C)C(=O)NCC(=O)N1CCC[C@H]1C(=O)N[C@H](C(=O)N[C@@H](CC(C)C)C(=O)N1CCC[C@H]1C(=O)N1CCC[C@H]1C(=O)N[C@H](C(=O)N[C@@H](CC(N)=O)C(=O)N[C@H](C(=O)NCC(=O)N[C@@H](CO)C(=O)N[C@@H](CC(N)=O)C(=O)N[C@H](C(=O)N[C@@H](Cc1ccc(O)cc1)C(N)=O)[C@@H](C)O)C(C)C)[C@@H](C)O)C(C)C [rAmy] | – | 51 ± 7% | 67 ± 8% | 82 ± 8% | 100 ± 5% | – | – | – | – | –
CC[C@H](C)[C@H](NC(=O)[C@H](C)NC(=O)[C@@H](NC(=O)[C@H](CCC(N)=O)NC(=O)[C@@H]1CCCN1C(=O)[C@H](Cc1ccccc1)NC(=O)[C@@H](NC(=O)[C@H](Cc1c[nH]cn1)NC(=O)[C@H](Cc1ccccc1)NC(=O)[C@H](CCCCN)NC(=O)[C@H](CC(N)=O)NC(=O)[C@H](Cc1ccccc1)NC(=O)[C@H](CC(=O)O)NC(=O)[C@H](CCC(N)=O)NC(=O)[C@@H](NC(=O)[C@H](Cc1ccc(O)cc1)NC(=O)[C@@H](NC(=O)CNC(=O)[C@H](CC(C)C)NC(=O)[C@H](CCSC)NC(=O)[C@@H]1CSSC[C@H](N)C(=O)NCC(=O)N[C@@H](CC(N)=O)C(=O)N[C@@H](CC(C)C)C(=O)N[C@@H](CO)C(=O)N[C@@H]([C@@H](C)O)C(=O)N1)[C@@H](C)O)[C@@H](C)O)[C@@H](C)O)[C@@H](C)O)C(=O)NCC(=O)N[C@H](C(=O)NCC(=O)N[C@@H](C)C(=O)N1CCC[C@H]1C(N)=O)C(C)C [hCT] | 40 ± 8% | 56 ± 6% | 130 ± 8% | 126 ± 7% | 100 ± 3% | – | – | – | – | –
CC(C)C[C@H](NC(=O)CNC(=O)[C@H](C)NC(=O)[C@H](CC(C)C)NC(=O)[C@H](CCCNC(=N)N)NC(=O)[C@H](Cc1cnc[nH]1)NC(=O)[C@@H](NC(=O)[C@@H](NC(=O)[C@@H]1CSSC[C@H](NC(=O)[C@H](C)N)C(=O)N[C@@H](CC(=O)O)C(=O)N[C@@H]([C@@H](C)O)C(=O)N[C@@H](C)C(=O)N[C@@H]([C@@H](C)O)C(=O)N1)C(C)C)[C@@H](C)O)C(=O)N[C@@H](CC(C)C)C(=O)N[C@@H](CO)C(=O)N[C@@H](CCCNC(=N)N)C(=O)N[C@@H](CO)C(=O)NCC(=O)NCC(=O)N[C@H](C(=O)N[C@H](C(=O)N[C@@H](CCCCN)C(=O)N[C@@H](CC(N)=O)C(=O)N[C@@H](CC(N)=O)C(=O)N[C@@H](Cc1ccccc1)C(=O)N[C@H](C(=O)N1CCC[C@H]1C(=O)N[C@H](C(=O)N[C@@H](CC(N)=O)C(=O)N[C@H](C(=O)NCC(=O)N[C@@H](CO)C(=O)N[C@@H](CCCCN)C(=O)N[C@@H](C)C(=O)N[C@@H](Cc1ccccc1)C(N)=O)C(C)C)[C@@H](C)O)C(C)C)C(C)C)C(C)C [hαCGRP] | – | – | 149 ± 22% | 84 ± 16% | 100 ± 6% | 52.5 nM | 85.1 nM | 77.6 nM | – | –
CSCC[C@H](NC(=O)CNC(=O)[C@H](CO)NC(=O)[C@H](Cc1ccccc1)NC(=O)[C@H](CCCNC(=N)N)NC(=O)[C@H](Cc1c[nH]cn1)NC(=O)[C@H](Cc1ccccc1)NC(=O)[C@H](CC(N)=O)NC(=O)[C@H](CC(N)=O)NC(=O)[C@H](CC(C)C)NC(=O)[C@H](CC(N)=O)NC(=O)[C@H](CCCNC(=N)N)NC(=O)[C@H](Cc1c[nH]c2ccccc12)NC(=O)[C@H](Cc1ccc(O)cc1)NC(=O)[C@H](C)NC(=O)[C@H](CO)NC(=O)[C@H](CC(C)C)NC(=O)[C@@H](NC(=O)[C@@H]1CSSC[C@H](N)C(=O)N[C@@H](CO)C(=O)N[C@@H](CC(N)=O)C(=O)N[C@@H](CC(C)C)C(=O)N[C@@H](CO)C(=O)N[C@@H]([C@@H](C)O)C(=O)N1)C(C)C)C(=O)NCC(=O)N[C@@H](Cc1ccccc1)C(=O)NCC(=O)N1CCC[C@H]1C(=O)N[C@@H](CCC(=O)O)C(=O)N[C@H](C(=O)N1CCC[C@H]1C(N)=O)[C@@H](C)O [pCT] (H-CSNLSTCVLSAYWRNLNNFHRFSGMGFGPETP-NH2; disulfide 1-7) | 38 ± 4% | 51 ± 3% | 136 ± 11% | 159 ± 11% | 100 ± 3% | 3.16 nM | 1.95 nM | 1.12 nM | 4.27 nM | 0.933 nM
